Experimental data reported in patent publication US9556158B2, “Fungicidal 3-[(pyridin-2-ylmethoxyimino)(phenyl)methyl]-2-substituted-1,2,4-oxadiazol-5(2H)-one derivatives” (BAYER INTELLECTUAL PROPERTY GMBH, priority 2011, dated 2017).

Assays:
Plasmopara viticola = assay: Example I: in vivo preventive test on Plasmopara viticola (grapevine); settings: 144 h, 10 ppm of active ingredient, preventive spray on young plants, evaluated 6 days after inoculation, read-out: Eff. %
Method: In Vivo Preventive Test on Plasmopara viticola (Grapevine)
To produce a suitable preparation of active compound, 1 part by weight of active compound is mixed with the stated amounts of solvent and emulsifier, and the concentrate is diluted with water to the desired concentration.
To test for preventive activity, young plants are sprayed with the preparation of active compound at the stated rate of application. After the spray coating has dried on, the plants are inoculated with an aqueous spore suspension of Plasmopara viticola and then remain for 1 day in an incubation cabinet at approximately 20° C. and a relative atmospheric humidity of 100%. The plant is subsequently placed for 4 days in a greenhouse at approximately 21° C. and a relative atmospheric humidity of approximately 90%. The plants are then misted and placed for 1 day in an incubation cabinet.
The test is evaluated 6 days after the inoculation. 0% means an efficacy which corresponds to that of the untreated control, while an efficacy of 100% means that no disease is observed.

Phytophthora infestans [1] = type: in vivo; settings: 100 ppm of active ingredient, preventive spray, inoculation one day after treatment, evaluated 7 days after inoculation
[2] = pH 2.7, LogP, HPLC on reversed phase columns, pH 2.7, 0.1% formic acid in water / acetonitrile gradient
Method: Measurement of log P values was performed according EEC directive 79/831 Annex V.A8 by HPLC (High Performance Liquid Chromatography) on reversed phase columns with the following method:
Measurement of LC-MS was done at pH 2.7 with 0.1% formic acid in water and with acetonitrile (contains 0.1% formic acid) as eluent with a linear gradient from 10% acetonitrile to 95% acetonitrile.
Calibration was done with not branched alkan2-ones (with 3 to 16 carbon atoms) with known log P-values (measurement of log P values using retention times with linear interpolation between successive alkanones). lambda-maX-values were determined using UV-spectra from 200 nm to 400 nm and the peak values of the chromatographic signals.

Phytophthora infestans [3] = assay: whole plant or invertebrate; type: in vivo; settings: in Solanum lycopersicum, 120 h, read-out: % efficacy
Botrytis cinerea = assay: Example B: in vivo preventive test on Botrytis cinerea (grey mould); settings: 500 ppm, preventive spray on gherkin plants, contamination after 24 hours, grading 4 to 5 days after contamination vs control plants
Method: In Vivo Preventive Test on Botrytis Cinerea (Grey Mould)
The active ingredients tested are prepared by homogenization in a mixture of acetone/tween/DMSO and then diluted with water to obtain the desired active material concentration.
Gherkin plants (“Vert petit de Paris” variety), sown in starter cups on a 50/50 peat soil-pozzolana substrate and grown at 24° C., are treated at the Z11 cotyledon stage by spraying with the active ingredient prepared as described above. Plants, used as controls, are treated with the mixture of acetone/tween/DMSO/water not containing the active material.
After 24 hours, the plants are contaminated by spraying the cotyledons with an aqueous suspension of cryopreserved Botrytis cinerea spores (50 000 spores per ml). The spores are suspended in a nutrient solution composed of 10 g/L of PDB, 50 g/L of D-Fructose, 2 g/L of NH4NO3 and 1 g/L of KH2PO4. The contaminated gherkin plants are incubated at 17° C. and at 90% relative humidity.
Grading (% of efficacy) is carried out 4 to 5 days after the contamination, in comparison with the control plants.
(§1) Under these conditions, good (at least 70%) or total protection is observed at a dose of 500 ppm with the following compounds: […]

Pyricularia oryzae = assay: whole plant or invertebrate; type: in vivo; settings: 144 h, read-out: % efficacy
Puccinia recondita = assay: Example E: in vivo preventive test on Puccinia recondita (brown rust on wheat); settings: 500 ppm, preventive spray on wheat plants, contamination after 24 hours, grading 12 days after contamination vs control plants
Method: In Vivo Preventive Test on Puccinia recondita (Brown Rust on Wheat)
(§2) The active ingredients tested are prepared by homogenization in a mixture of acetone/tween/DMSO, and then diluted with water to obtain the desired active material concentration.
Wheat plants (“Scipion” variety), sown in starter cups on a 50/50 peat soil-pozzolana substrate and grown at 22° C., are treated at the 1-leaf stage (10 cm height) by spraying with the active ingredient prepared as described above. Plants, used as controls, are treated with the mixture of acetone/tween/DMSO/water not containing the active material.
(§3) After 24 hours, the plants are contaminated by spraying the leaves with an aqueous suspension of Puccinia recondita spores (100 000 spores per ml). The spores are collected from an infected plant and are suspended in water containing 2.5 ml/l of Tween 80 at 10%. The contaminated wheat plants are incubated for 24 hours at 20° C. and at 100% relative humidity, and then for 10 days at 20° C. and at 70-80% relative humidity.
Grading (% of efficacy) is carried out 12 days after the contamination, in comparison with the control plants.
as §1

Uromyces appendiculatus = assay: Example C: in vivo preventive test on Uromyces appendiculatus (bean rust); settings: 500 ppm, preventive spray on bean plants, contamination after 24 hours, grading 11 days after contamination vs control plants
Method: In Vivo Preventive Test on Uromyces appendiculatus (Bean Rust)
as §2
Bean plants (“Saxa” variety), sown in starter cups on a 50/50 peat soil-pozzolana substrate and grown at 24° C., are treated at the 2-leaf stage (9 cm height) by spraying with the active ingredient prepared as described above. Plants, used as controls, are treated with the mixture of acetone/tween/DMSO/water not containing the active material.
as §3, with “of Uromyces appendiculatus” for “of Puccinia recondita”, “spores (150” for “spores (100”, “from” for “from an”, “infected plants” for “infected plant”, “contaminated bean” for “contaminated wheat”
Grading (% of efficacy) is carried out 11 days after the contamination, in comparison with the control plants.
as §1

Pyrenophora teres = assay: Example D: in vivo preventive test on Pyrenophora teres (net blotch on barley); settings: 500 ppm, preventive spray on barley plants, contamination after 24 hours, grading 14 days after contamination vs control plants
Method: In Vivo Preventive Test on Pyrenophora teres (Net Blotch on Barley)
as §2
Barley plants (“Plaisant” variety), sown in starter cups on a 50/50 peat soil-pozzolana substrate and grown at 22° C., are treated at the 1-leaf stage (10 cm height) by spraying with the active ingredient prepared as described above. Plants, used as controls, are treated with the mixture of acetone/tween/DMSO/water not containing the active material.
After 24 hours, the plants are contaminated by spraying the leaves with an aqueous suspension of Pyrenophora teres spores (12 000 spores per ml). The spores are collected from a 12-day-old culture. The contaminated barley plants are incubated for 48 hours at 20° C. and at 100% relative humidity, and then for 12 days at 20° C. at 70-80% relative humidity.
Grading (% of efficacy) is carried out 14 days after the contamination, in comparison with the control plants.
as §1

| SMILES | pest or weed control at 10 ppm (Plasmopara viticola) [%] | Eff. % (Phytophthora infestans [1]) [%] | chromatographic logP [2] | pest or weed control at 500 ppm (Phytophthora infestans [3]) [%] | % efficacy (Botrytis cinerea) [%] | pest or weed control at 500 ppm (Pyricularia oryzae) [%] | % efficacy (Puccinia recondita) [%] | % efficacy (Uromyces appendiculatus) [%] | % efficacy (Pyrenophora teres) [%] |
| --- | --- | --- | --- | --- | --- | --- | --- | --- | --- |
| Cn1oc(=O)nc1C(=NOCc1cccc(NCC2CCCCC2)n1)c1ccccc1 [Example 4] | 94 | 95 | 2.44 | – | – | – | – | – | – |
| CCCCCCNc1cccc(CON=C(c2ccccc2)c2nc(=O)on2C)n1 [Example 5] | 96 | 95 | 2.2 | – | – | – | – | – | – |
| Cn1oc(=O)nc1C(=NOCc1cccc(NCCc2ccccc2)n1)c1ccccc1 [Example 7] | 96 | 95 | 2.23 | – | – | – | – | – | – |
| Cn1oc(=O)nc1C(=NOCc1cccc(NC(=O)c2cccc(F)c2)n1)c1ccccc1 [Example 10] | – | – | 3.11 | 99 | 71 | 79 | – | – | – |
| COc1ccc(CC(=O)Nc2cccc(CON=C(c3ccccc3)c3nc(=O)on3C)n2)cc1 [Example 16] | 94 | – | 2.92 | 100 | – | – | 89 | 81 | – |
| C#CCC(C)(C)OC(=O)Nc1cccc(CO/N=C(/c2ccccc2)c2nc(=O)on2C)n1 [Example 35, 2-methylpent-4-yn-2-yl {6-[({[(Z)-(2-methyl-5-oxo-2,5-dihydro-1,2,4-oxadiazol-3-yl)(phenyl)methylene]amino}oxy)methyl]pyridin-2-yl}carbamate] | 100 | – | 3.31 | 100 | 90 | – | – | – | – |
| COc1cccc(C(=NOCc2cccc(NC(=O)COc3ccccc3)n2)c2nc(=O)o[nH]2)c1 [Example 45] | – | – | 3.17 | 88 | – | – | – | – | 71 |
| Cc1cccc(C(=NOCc2cccc(NC(=O)COc3ccccc3)n2)c2nc(=O)on2C)c1 [Example 55] | – | – | 3.39 | 100 | 85 | 83 | – | – | – |
